Test results published in patent US7232690B1, “Method and device for detecting and isolating pharmacological compounds being contained in substance mixtures” (LTS Lohmann Therapie-Systeme AG, priority 1999, dated 2007).
Like-named read-outs stand apart in the source and are kept apart here.

How the values were obtained:
serine protease trypsin = test: Ultrafiltration target-binding test of non-equimolar amidinophenylalanine mixture with trypsin (Example 2); settings: applied 6 8.4, 7 41.25, 10 2.5 μmol/l
Experimental: (§1) Incubation of the substance library and the inhibitor with thrombin took place at room temperature within 1 hour; solvent: 0.9% of NaCl in H2O. The separation of the protein-ligand complexes formed was accomplished by ultrafiltration (centrifugal). All filtration procedures and washes were carried out until dryness of the filters.
(§2) Filter: Microcon 10 (Amicon)
(§3) Centrifugation conditions: 9981×g, room temperature
(§4) Washing steps: 2×, each with 150 μl of 0.9% NaCl in H2O, 4° C.
(§5) Ultrafiltration and analysis of the filtrate were followed by washing steps and the liberation of the ligand (the active chemical substance) from the protein-ligand complex retained on the filter by treatment with 200 μl of water/methanol/TFA (49.5/49.5/1) at room temperature.
(§6) The blind sample (without thrombin) was treated analogously in all steps so that a comparison of the filtrates was possible. The filtrates obtained in all steps were dried by means of a speed-VAC concentrator, and later dissolved in the corresponding HPLC flow agent of defined amount applying ultrasound and agitation.
Identification of the ligands was accomplished by analytic HPLC: stationary phase Hypersil C 18 BDS, 3 μm, 150*0.3 mm, Fusica (LC Packings)—mobile phase: acetonitrile/water/TFA (35/65/0.01), isocratic, 5 μL/min, λ=[…].
The trypsin inhibitors of 3-amidinophenylalanine represented in the following by their structural formulae, were used as chemical substances, and the serine protease trypsin as target:
The experiments were performed as described in Example 1.

Thrombin [1] = target: T1, Thrombin (Homo sapiens, UniProt P00734); test: Thrombin inhibition constant (Ki); format: biochemical; settings: read-out: Ki [μmol/l] Thrombin
Trypsin = target: T2, Trypsin (Bos taurus, UniProt P00760); test: Trypsin inhibition constant (Ki); format: biochemical; settings: read-out: Ki [μmol/l] Trypsin
T2 sequence (P00760 24-246): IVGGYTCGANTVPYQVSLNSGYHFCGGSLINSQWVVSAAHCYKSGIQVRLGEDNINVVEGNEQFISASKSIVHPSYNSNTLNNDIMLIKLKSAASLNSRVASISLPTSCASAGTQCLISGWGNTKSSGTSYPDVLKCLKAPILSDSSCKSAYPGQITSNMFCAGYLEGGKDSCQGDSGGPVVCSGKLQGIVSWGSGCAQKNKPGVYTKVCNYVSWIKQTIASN

serine protease thrombin = serine protease thrombin (Homo sapiens, UniProt P00734); test: Ultrafiltration target-binding test of substance library with thrombin, HPLC of filtrates (Example 1); settings: 10 μmol/l each substance, 5 μmol/l thrombin, 1 hour room temperature
Experimental: As a target, the serine protease thrombin was chosen.
The examined assays were of the following composition:
as §1, §2, §3, §4, §5, §6
Identification of the ligands was accomplished by analytic HPLC: stationary phase Hypersil C 18 BDS, 3 μm, 150*0.3 mm, Fusica (LC Packings)—mobile phase: acetonitrile/water/TFA (35/65/0.01), isocratic, 5 μL/min, λ=[…]. […]

Thrombin [2] = target: T1, Thrombin; settings: thrombin inhibitor CRC 220 of Behringwerke; cited from earlier work

1st Wash (serine protease trypsin; Sample 261, without trypsin) [µmol/L] | 2nd Wash (serine protease trypsin; Sample 261, without trypsin) [µmol/L] | Filtrate (serine protease trypsin; Sample 261, without trypsin) [µmol/L] | Liberation (serine protease trypsin; Sample 261, without trypsin) [µmol/L] | 1st Wash (serine protease trypsin; Sample 262, trypsin 50 μmol/l) [µmol/L] | 2nd Wash (serine protease trypsin; Sample 262, trypsin 50 μmol/l) [µmol/L] | Filtrate (serine protease trypsin; Sample 262, trypsin 50 μmol/l) [µmol/L] | Liberation (serine protease trypsin; Sample 262, trypsin 50 μmol/l) [µmol/L] | Ki (Thrombin [1]) [µmol/L] | Ki (Trypsin) [µmol/L] | Binding to target thrombin (difference between main experiment and blind sample) (serine protease thrombin) | Compound | Ki (Thrombin [2]) [nM]
0.71 | 0.05 | 7.44 | 0.01 | 0.23 | 0.15 | 0.67 | 6.09 | 0.0021 | 0.067 |  | CS(=O)(=O)N1CCN(C(=O)C(Cc2cccc(C(=N)N)c2)NS(=O)(=O)c2ccc3ccccc3c2)CC1 (stereo not shown) [Substance 6] | 
0.02 | 0.0013 | 0.05 | 0.0011 | 0.0058 | 0.0012 | 0.02 | 0.53 | 0.36 | 0.02 |  | CCOC(=O)C1CCN(C(=O)C(Cc2cccc(C(=N)N)c2)NS(=O)(=O)c2ccc3ccccc3c2)CC1 (stereo not shown) [Substance 10] | 
 |  |  |  |  |  |  |  |  |  | not an inhibitor | Cl.Clc1cccc(Cl)c1NC1=NCCN1 [clonidin-HCL] | 
 |  |  |  |  |  |  |  |  |  |  | COc1cc(C)c(S(=O)(=O)N[C@@H](CC(=O)O)C(=O)N[C@H](Cc2ccc(C(=N)N)cc2)C(=O)N2CCCCC2)c(C)c1C [CRC 220] | 2.5
